This note sets out measurements from patent publication US8815872B2, “Macrocyclics pyrimidines as aurora kinase inhibitors” (Merck Patent GmbH, priority 2008, dated 2014).

One data set deals with T1, Aurora A (Homo sapiens, UniProt O14965).
T1 construct: N-terminal GST fusion with full length Aurora A (1-403 amino acids); purchased Carna Biosciences 05-101
T1 sequence (O14965 1-403): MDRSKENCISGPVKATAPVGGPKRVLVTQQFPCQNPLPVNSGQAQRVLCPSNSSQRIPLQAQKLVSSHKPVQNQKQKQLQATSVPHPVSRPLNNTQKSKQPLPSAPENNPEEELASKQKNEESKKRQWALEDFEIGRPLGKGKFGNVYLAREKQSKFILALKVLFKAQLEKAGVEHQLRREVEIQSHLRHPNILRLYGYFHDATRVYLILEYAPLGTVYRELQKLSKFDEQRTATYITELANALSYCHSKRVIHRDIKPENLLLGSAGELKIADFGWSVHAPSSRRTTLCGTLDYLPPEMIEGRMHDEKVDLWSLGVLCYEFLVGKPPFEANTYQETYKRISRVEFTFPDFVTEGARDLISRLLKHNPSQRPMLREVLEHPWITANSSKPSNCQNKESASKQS
In words: Aurora A enzyme assay (Caliper LC3000 mobility shift). The class given is biochemical. An outline of the steps:
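Full-length N-terminal GST-Aurora A (0.067 ng/µl) with 15 µM ATP and 1 µM FITC-LRRASLG peptide in 100 mM HEPES pH 7.5, 1 mM MgCl2, 1 mM DTT, 0.015% Brij-35, 90 min at 25 °C, EDTA-stopped. Off-chip mobility shift measured percent substrate conversion; IC50 from sigmoidal dose-response fit.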

In a further data set the target is Aurora B (Homo sapiens, UniProt Q96GD4). In words: Aurora B enzyme assay (Caliper). Format: biochemical. Put shortly:
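Kinase activity was measured by microfluidic mobility-shift separation of phosphorylated and unphosphorylated fluorescently labelled substrate peptide at the end of the enzymatic reaction. Product and substrate were resolved by their charge difference and detected by fluorescence.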

A further data set deals with A549. Briefly: Cellular activity A549. The class given is cell-based. The settings on record: Homo sapiens. An outline of the steps: (§1)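 Cultured cells were exposed to compounds at various concentrations for roughly one hour to one week, enough to induce cell death or inhibit migration. Viable cells remaining after treatment were then counted.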
The next data set has as its system MiaPaca2. Briefly: Cellular activity MiaPaca2. The settings on record: Homo sapiens, MIA PaCa-2. Format: cell-based. An outline of the steps:
as §1

Data set [1] deals with kinases (not incl. Aurora). In words: Kinase inhibition profile (not incl. Aurora). The class given is biochemical. The settings on record: at 1 μM; hit means >79% inhibition. The protocol: The Aurora and other kinase assays described here were performed on two Caliper Life Sciences systems, the LC3000 and the Desktop Profiler. These provide data on enzyme activity via measurement of the relative amounts of phosphorylated or unphosphorylated fluorescently labelled substrate peptide at the end of an enzymatic reaction. These different states of peptide are resolved by applying a potential difference across the sample. The presence of a charged phosphate group on the product (as opposed to the substrate) causes a different peptide mobility between the two peptides. This is visualized by excitation of a fluorescent label on the substrate and product peptides and represented as peaks within the analysis software.
The Desktop Profiler utilizes the same principal as the LC 3000 for calculating percentage conversion of a substrate to product. Caliper Life Sciences provided proprietary flash frozen pre-made 384 well plates containing selected kinases. Each column in the 384 well plate contained a particular selected kinase. A second plate, the ‘substrate plate’ contained a mix of fluorescently labeled peptide substrate and ATP. These were arranged in columns so that transfer for substrate plate to enzyme plate provided the correct enzyme with the correct substrate/ATP concentration.
Compounds were added to a thawed enzyme plate in the desired format, in single concentrations. Reactions were initiated by transfer of the ubstrate/ATP mix from the substrate plate. The enzyme plate was incubated for 90 mins at 25 °C. The reaction was stopped by addition of […] of Stop Buffer (100 mM HEPES pH 7.5, 0.015% Brij-35, 10 mM EDTA (Sigma, E7889)).
Plates were read in a manner identical to that of the LC3000, and the ratio between substrate and product peaks provided the activity of the enzyme in that well. This was best represented by a plate heat map which colors each well by percent inhibition as compared to positive and negative controls (no inhibitors and no ATP respectively).

Where “and” joins values, the source holds several entries; their conditions need not be identical. Identical values can stand only once. Like-named read-outs stand apart in the source and are kept apart here.

Aurora B, sequence (Q96GD4 whole entry): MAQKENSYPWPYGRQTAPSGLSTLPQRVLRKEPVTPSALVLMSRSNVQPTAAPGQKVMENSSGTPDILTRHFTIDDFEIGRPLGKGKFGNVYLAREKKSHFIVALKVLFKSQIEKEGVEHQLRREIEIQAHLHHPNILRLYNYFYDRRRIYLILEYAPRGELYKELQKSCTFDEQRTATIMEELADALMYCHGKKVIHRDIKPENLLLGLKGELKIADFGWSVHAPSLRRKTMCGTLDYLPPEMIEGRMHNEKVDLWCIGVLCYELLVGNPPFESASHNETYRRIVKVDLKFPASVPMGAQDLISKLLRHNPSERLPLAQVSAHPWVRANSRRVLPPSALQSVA

In the case of `Fc1cnc2nc1NC1CCCC(C1)OCC=CCOc1cccc(c1)N2` (stereo not drawn), the ring closure, yield of all isomers (from C=CCOc1cccc(Nc2ncc(F)c(NC3CCCC(OCC=C)C3)n2)c1, rcm bond, Grubbs 2nd generation, dichloromethane, 2.0 mM, 40.0 °C, 16.0 h) was 1.5%.
`CN1Cc2cccc(c2)Nc2ncc(F)c(n2)N[C@@H]2[C@@H]3C[C@@H](C[C@H]3C1)[C@@H]2C(N)=O` registered a ring closure, yield of all isomers (from CN(Cc1cccc(N)c1)C[C@@H]1C[C@@H]2C[C@H]1[C@@H](Nc1nc(Cl)ncc1F)[C@H]2C(N)=O, snar bond) of 5.5%. The results for the IC50 at Aurora A and at Aurora B were 1000 to 6250 nM and 1 to 100 nM, respectively.
Under “from NC(=O)[C@H]1[C@@H]2CC(CNCCc3cccc(N)c3)[C@@H](C2)[C@H]1Nc1nc(Cl)ncc1F, snar bond”, `NC(=O)[C@H]1[C@@H]2CC3CNCCc4cccc(c4)Nc4ncc(F)c(n4)N[C@@H]1[C@@H]3C2` (stereo partly drawn) came in with a ring closure, yield of all isomers of 18.5%. Further, the half-maximal inhibitory concentration (IC50) at Aurora A was 101 to 1000 nM; on Aurora B, 1 to 100 nM; in the data set with A549, 101 to 1000 nM; in the data set with MiaPaca2, 101 to 1000 nM. For the same compound, the “Kinase Inhibition Profile (not incl. Aurora) # kinases hit/# kinases tested” value in data set [1] is on record as 1/53 at 1 μM.
The compound `CN1CCN(c2ccc3cc2COC(=O)N[C@@H]2C[C@@H]4C[C@H]2[C@@H](Nc2nc(ncc2F)N3)[C@H]4C(N)=O)CC1` had a ring closure, yield of all isomers (from CN1CCN(c2ccc(N)cc2COC(=O)N[C@@H]2C[C@@H]3C[C@H]2[C@@H](Nc2nc(Cl)ncc2F)[C@H]3C(N)=O)CC1, snar bond, HCl) of 8.7%. The concentration for half-maximal inhibition (IC50) on Aurora A lay within 1 to 100 nM; against Aurora B, 1 to 100 nM; in the data set on A549, 101 to 1000 nM; in the data set on MiaPaca2 it was 101 to 1000 nM.
As to `NC(=O)[C@H]1[C@@H]2C[C@H]3CNC(=O)Cc4cccc(c4)Nc4ncc(F)c(n4)N[C@@H]1[C@@H]3C2`, under “from NC(=O)[C@H]1[C@@H]2C[C@@H](CNC(=O)Cc3cccc(N)c3)[C@@H](C2)[C@H]1Nc1nc(Cl)ncc1F, snar bond, 2 steps”, the ring closure, yield of all isomers is 7%.
Compound `NC(=O)[C@H]1[C@@H]2CC3CNC(=O)c4cccc(c4)Nc4ncc(F)c(n4)N[C@@H]1[C@@H]3C2` (stereo partly drawn) displayed a ring closure, yield of all isomers (from CC(C)(C)OC(=O)Nc1cccc(C(=O)NCC2C[C@@H]3C[C@H]2[C@@H](Nc2nc(Cl)ncc2F)[C@H]3C(N)=O)c1, snar bond, TFA, 2 steps) of 1.8%.
For `NC(=O)[C@H]1[C@H]2C[C@H]3[C@H]1Nc1nc(ncc1F)Nc1cccc(c1)CC(=O)N[C@@H]3C2`, for the setting “from NC(=O)[C@H]1[C@H]2C[C@@H]([C@H]1Nc1nc(Cl)ncc1F)[C@H](NC(=O)Cc1cccc(N)c1)C2, snar bond”, the ring closure, yield of all isomers is 8.1%. The 50% inhibitory concentration (IC50) on Aurora A and against Aurora B was 1 to 100 nM each time.
`CN1CCN(c2cc3cc(c2)S(=O)(=O)NC[C@@H]2C[C@@H]4C[C@H]2[C@@H](Nc2nc(ncc2F)N3)[C@H]4C(N)=O)CC1`: where the note is “from CN1CCN(c2cc(N)cc(S(=O)(=O)NC[C@@H]3C[C@@H]4C[C@H]3[C@@H](Nc3nc(Cl)ncc3F)[C@H]4C(N)=O)c2)CC1, snar bond, HCl”, the ring closure, yield of all isomers is 6.8%. On Aurora A, the 50% inhibitory concentration (IC50) lay within 1 to 100 nM.
As to `Fc1cnc2nc1NC1CCC(CC1)OCC=CCOc1cccc(c1)N2`, the ring closure, yield of all isomers (from C=CCOc1cccc(Nc2ncc(F)c(NC3CCC(OCC=C)CC3)n2)c1, rcm bond, Grubbs 2nd generation, then Hoveyda-Grubbs 2nd generation, dichloromethane, 2.0 mM, 40.0 °C, 76.0 h) is 2.7% and 5.9%.
With `NC(=O)[C@H]1[C@@H]2C[C@H]3CNCC(O)c4cccc(c4)Nc4ncc(F)c(n4)N[C@@H]1[C@@H]3C2` (stereo partly drawn), where the note is “from NC(=O)[C@H]1[C@@H]2C[C@@H](CNCC(O)c3cccc(N)c3)[C@@H](C2)[C@H]1Nc1nc(Cl)ncc1F, snar bond, HCl”, the ring closure, yield of all isomers was found to be 43.9%. In addition, the IC50 on Aurora A fell in the range of 101 to 1000 nM.
Under “from NC(=O)[C@H]1[C@@H]2C[C@@H](CNCC(=O)Nc3cccc(N)c3)[C@@H](C2)[C@H]1Nc1nc(Cl)ncc1F, snar bond”, `NC(=O)[C@H]1[C@@H]2C[C@H]3CNCC(=O)Nc4cccc(c4)Nc4ncc(F)c(n4)N[C@@H]1[C@@H]3C2` had a ring closure, yield of all isomers of 44%. In addition, the IC50 on Aurora A and at Aurora B was 101 to 1000 nM each time.
As for `CN1CCN(c2ccc3cc2CNC[C@@H]2C[C@@H]4C[C@H]2[C@@H](Nc2nc(ncc2F)N3)[C@H]4C(N)=O)CC1`, the ring closure, yield of all isomers (from CN1CCN(c2ccc(N)cc2CNC[C@@H]2C[C@@H]3C[C@H]2[C@@H](Nc2nc(Cl)ncc2F)[C@H]3C(N)=O)CC1, snar bond, HCl) was 24.9%. In addition, the IC50 at Aurora A lay within 101 to 1000 nM; against Aurora B, 1 to 100 nM.
Take `NC(=O)[C@H]1[C@@H]2C[C@H]3CNC(=O)Cn4cnc(c4)Nc4ncc(F)c(n4)N[C@@H]1[C@@H]3C2`: where the note is “from NC(=O)[C@H]1[C@@H]2C[C@@H](CNC(=O)Cn3cnc([N+](=O)[O-])c3)[C@@H](C2)[C@H]1Nc1nc(Cl)ncc1F, snar bond, 2 steps”, the ring closure, yield of all isomers worked out at 46.6%. The IC50 on Aurora A and on Aurora B was 1000 to 6250 nM each time.
Where the note is “from CC(=O)N(Cc1cccc(N)c1)C[C@@H]1C[C@@H]2C[C@H]1[C@@H](Nc1nc(Cl)ncc1F)[C@H]2C(N)=O, snar bond”, `CC(=O)N1Cc2cccc(c2)Nc2ncc(F)c(n2)N[C@@H]2[C@@H]3C[C@@H](C[C@H]3C1)[C@@H]2C(N)=O` returned a ring closure, yield of all isomers of 45.4%.
For the compound `NC(=O)[C@H]1[C@@H]2CC3CNCc4cccc(c4)Nc4ncc(F)c(n4)N[C@@H]1[C@@H]3C2` (stereo partly drawn), for the setting “from NC(=O)[C@H]1[C@@H]2CC(CNCc3cccc(N)c3)[C@@H](C2)[C@H]1Nc1nc(Cl)ncc1F, snar bond”, the ring closure, yield of all isomers was found to be 7.6%. The IC50 on Aurora A lay in the range of 101 to 1000 nM; against Aurora B, 1 to 100 nM; with A549, 1 to 100 nM; in the data set with MiaPaca2 it was 1 to 100 nM. Besides, in data set [1], the “Kinase Inhibition Profile (not incl. Aurora) # kinases hit/# kinases tested” value was 1/50 at 1 μM.
Consider `NC(=O)[C@H]1[C@H]2C[C@H]3[C@H]1Nc1nc(ncc1F)Nc1cccc(c1)COC(=O)N[C@@H]3C2`, for which the ring closure, yield of all isomers (from NC(=O)[C@H]1[C@H]2C[C@@H]([C@H]1Nc1nc(Cl)ncc1F)[C@H](NC(=O)OCc1cccc(N)c1)C2, snar bond) came out at 3.3%. For the same compound, the IC50 on Aurora A lay within 1 to 100 nM; against Aurora B, 1 to 100 nM; with A549 it was 1000 to 6250 nM; in the data set on MiaPaca2, 1000 to 6250 nM.
`NC(=O)[C@H]1[C@@H]2C[C@H]3CNS(=O)(=O)Cc4cccc(c4)Nc4ncc(F)c(n4)N[C@@H]1[C@@H]3C2` displayed a ring closure, yield of all isomers (from NC(=O)[C@H]1[C@@H]2C[C@@H](CNS(=O)(=O)Cc3cccc(N)c3)[C@@H](C2)[C@H]1Nc1nc(Cl)ncc1F, snar bond) of 6.3%. For the same compound, the IC50 at Aurora A fell in the range of 1 to 100 nM; against Aurora B, 101 to 1000 nM; in the data set with A549 it was 1000 to 6250 nM; with MiaPaca2, 1000 to 6250 nM.
`NC(=O)[C@H]1[C@H]2C[C@H]3[C@H]1Nc1nc(ncc1F)Nc1cccc(c1)CNC(=O)N[C@@H]3C2` yielded a ring closure, yield of all isomers (from NC(=O)[C@H]1[C@H]2C[C@@H]([C@H]1Nc1nc(Cl)ncc1F)[C@H](NC(=O)NCc1cccc(N)c1)C2, snar bond) of 36.7%. Also, the IC50 at Aurora A was in the range of 1 to 100 nM; on Aurora B, 1 to 100 nM; in the data set on A549, 1000 to 6250 nM; in the data set with MiaPaca2 it was 1000 to 6250 nM.
In turn, `NC(=O)[C@H]1[C@@H]2CC3CNS(=O)(=O)c4cccc(c4)Nc4ncc(F)c(n4)N[C@@H]1[C@@H]3C2` (stereo partly drawn) came in with a ring closure, yield of all isomers (from NC(=O)[C@H]1[C@@H]2CC(CNS(=O)(=O)c3cccc(N)c3)[C@@H](C2)[C@H]1Nc1nc(Cl)ncc1F, snar bond) of 8.5%.
`CN1CCN(c2ccc3cc2CC(=O)N[C@@H]2C[C@@H]4C[C@H]2[C@@H](Nc2nc(ncc2F)N3)[C@H]4C(N)=O)CC1` registered a ring closure, yield of all isomers (from CN1CCN(c2ccc(N)cc2CC(=O)N[C@@H]2C[C@@H]3C[C@H]2[C@@H](Nc2nc(Cl)ncc2F)[C@H]3C(N)=O)CC1, snar bond) of 5.3%. In addition, the half-inhibitory concentration (IC50) at Aurora A and against Aurora B was 1 to 100 nM in each case.
